From US20170268001A1, “RNAS WITH TUMOR RADIO/CHEMO-SENSITIZING AND IMMUNOMODULATORY PROPERTIES AND METHODS OF THEIR PREPARATION AND APPLICATION” (THE UNIVERSITY OF CHICAGO, priority 2016, published 2017)

T1: RIG-I (Homo sapiens, UniProt O95786)
T1 construct: HEK293 cells overexpressing either the full length RIG-I; host or cells: HEK293; HCT116 also for the qRT-PCR validation
T1 sequence (O95786 1-925): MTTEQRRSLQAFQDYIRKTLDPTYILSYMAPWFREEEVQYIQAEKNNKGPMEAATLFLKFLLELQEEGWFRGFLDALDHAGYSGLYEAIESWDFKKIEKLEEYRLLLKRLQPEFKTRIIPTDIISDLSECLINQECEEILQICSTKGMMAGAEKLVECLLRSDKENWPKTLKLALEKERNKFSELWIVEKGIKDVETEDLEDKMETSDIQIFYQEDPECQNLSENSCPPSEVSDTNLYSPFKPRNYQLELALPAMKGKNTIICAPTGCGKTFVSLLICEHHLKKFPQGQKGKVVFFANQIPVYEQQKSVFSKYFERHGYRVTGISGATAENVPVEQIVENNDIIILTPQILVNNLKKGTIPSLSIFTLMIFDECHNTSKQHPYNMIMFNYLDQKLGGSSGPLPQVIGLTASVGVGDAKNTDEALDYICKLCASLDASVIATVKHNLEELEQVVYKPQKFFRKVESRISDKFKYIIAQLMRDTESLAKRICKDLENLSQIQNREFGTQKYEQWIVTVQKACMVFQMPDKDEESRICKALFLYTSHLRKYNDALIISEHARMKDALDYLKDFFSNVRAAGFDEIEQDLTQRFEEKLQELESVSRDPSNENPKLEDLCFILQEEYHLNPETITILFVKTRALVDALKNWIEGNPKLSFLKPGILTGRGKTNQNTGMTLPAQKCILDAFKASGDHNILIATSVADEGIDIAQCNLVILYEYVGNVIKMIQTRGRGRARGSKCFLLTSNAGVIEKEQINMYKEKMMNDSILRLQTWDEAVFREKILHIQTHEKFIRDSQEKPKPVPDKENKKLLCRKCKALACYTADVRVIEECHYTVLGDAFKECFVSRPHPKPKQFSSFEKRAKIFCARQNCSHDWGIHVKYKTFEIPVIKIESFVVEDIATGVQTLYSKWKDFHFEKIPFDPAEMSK

B1: M5: rbRNA, RIG-I agonist, 81 nucleotides, SEQ ID NO:26 (nucleic acid)
chain: GACGAAGACCACAAAACCAGATAAAAAATTATTTTTTATCTGGTTTTGTGGTCTTCGTCTATAGTGAGTCGTATTAATTTC
modifications: listed as DNA, chemistry not given here

Target: T1, RIG-I
Assay: UV cross-linking with quantitative real-time PCR (CLIP-PCR) of RIG-I complexes
Type: binding
Protocol: Graphic representation indicating the distribution of non-coding and repetitive RNA molecules bound to RIG-I following exposure to IR as compared to total irradiated cellular RNA. Transcripts were mapped to reference genomes using RepeatMasker. See Methods for further details. […] Cells were UV crosslinked at 150 mJ/cm^2 48 hours post-IR treatment prior to cell lysis. […] FIG. 29H show IFN-b levels in culture supernatant from ICR RIG-I^+/+ and primary MEFs 24 hours post-stimulation with the same set of synthetic U1 oligonucleotides used in (FIG. 29G) The amount of U1 synthetic oligonucleotides used in all stimulation experiments was 1 μg. P values were determined using unpaired Student's t-test. Error bars are SEM. ***P<0.005.
Technically, identification of RNAs was performed as follows: HEK293 cells were transiently transfected with 3×FLAG-tagged full-size RIG-I in pEF-BOS vector (Addgene; Cambridge, Mass.). Twenty-four hours post-transfection, cells were either mock-irradiated or exposed to IR (6 Gy). Forty-eight hours post-IR, cells were lysed with a modified lysis buffer (50 mM Tris-Cl pH 7.5, 0.15 M NaCl, 0.1% NP-40, 1.0% Triton X-100, 1 mM EDTA pH8.0, 1 mM EGTA pH8.0, 10% Glycerol, 2.5 mM MgCl2, 1 mM DTT, 0.1 mM ATP, and 1× Halt Protease Inhibitor) and incubated on ice for 1 hour. Cell lysates were separated from cell debris by centrifugation at 12,000 rpm at 4° C. Protein concentration was measured by BCA kit. Anti-FLAG monoclonal antibody was added to the cell lysate at a 1:500 dilution, and incubated overnight at 4° C. Protein G sepharose beads were added to the lysates and incubated for at least 2 hours at 4° C. Beads containing the antibody-RIG-I complexes were washed five times in wash buffer (50 mM Tris-Cl pH 7.5, 0.15 M NaCl, 1 mM MgCl2, 0.05% NP-40, 1 mM DTT) and proteins were eluted from the beads using a soft elution buffer (0.5% SDS, 0.1% Tween-20, 50 mM Tris pH 8.0) for 10 minutes at room temperature with vortexing every 2-3 minutes. Proteinase K was added to the eluates and incubated at 50° C. for 45 minutes. Trizol reagent was then added to the solution, and RNA bound to RIG-I was purified following manufacturer's protocol. RNA quality was analyzed using an Agilent Bioanalyzer 2100 with Pico Series II cartridges. RNA yield was measured using the Qubit RNA Broad Range kit. For qRT-PCR validation experiments of RIG-I pulled down RNA, UV cross-linking (2 doses at 150 mJ/cm^2) was performed on HEK293 and HCT116 overexpressing RIG-I prior to cell lysis. The same protocol for pulldown and RNA purification experiments was performed as described above.

Molecule	enrichment in RIG-I: RNA complexes in irradiated samples (HCT116 cells overexpressing RIG-I)	enrichment in purified RIG-I complexes, irradiated vs non-irradiated (HEK293 expressing WT RIG-I, IR 6 Gy)	binding to RIG-I (RIG-I: RNA complexes isolated from HCT116 cells overexpressing RIG-I)
U2: snRNA, SEQ ID NO:21	significant enrichment	6 fold	
B1			binds
